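All cell lines were grown in 96-well plates and treated with compound for 48 hours. The concentration for 50% growth inhibition is given as GI50. TGI: concentration producing complete growth inhibition.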
Experiments:
Assay in all cases: NCI-60 cell line screen, 48 h
LOX IMVI melanoma = system: LOX IMVI melanoma
786-0 renal = system: 786-0 renal
SK-MEL-5 melanoma = system: SK-MEL-5 melanoma
MCF7 breast = system: MCF7 breast
RXF 393 renal = system: RXF 393 renal
HOP-62 NSCLC = system: HOP-62 NSCLC
K-562 leukemia = system: K-562 leukemia
NCI-H23 lung = system: NCI-H23 lung
KM12 colon = system: KM12 colon
OVCAR-8 ovarian = system: OVCAR-8 ovarian
SK-MEL-2 melanoma = system: SK-MEL-2 melanoma
HOP-92 NSCLC = system: HOP-92 NSCLC
HL-60(TB) leukemia = system: HL-60(TB) leukemia
T-47D breast = system: T-47D breast
A498 renal = system: A498 renal
UO-31 renal = system: UO-31 renal
SF-268 CNS = system: SF-268 CNS
NCI/ADR-RES ovarian = system: NCI/ADR-RES ovarian
HCT-116 colon = system: HCT-116 colon
EKVX NSCLC = system: EKVX NSCLC
M14 melanoma = system: M14 melanoma
RPMI-8226 leukemia = system: RPMI-8226 leukemia
ACHN renal = system: ACHN renal
SR leukemia = system: SR leukemia
HT29 colon = system: HT29 colon
IGROV1 ovarian = system: IGROV1 ovarian
SNB-75 CNS = system: SNB-75 CNS
MDA-MB-435 = system: MDA-MB-435
HCC-2998 colon = system: HCC-2998 colon

CCOc1ccc(C(=O)Nc2ncc(Cc3ccc(F)cc3)s2)cc1 gave a GI50 (LOX IMVI melanoma) of 145 nM, a TGI (LOX IMVI melanoma) greater than 100000 nM and a GI50 (786-0 renal) of 340 nM. The TGI (786-0 renal) was greater than 54500 nM, the GI50 (SK-MEL-5 melanoma) was 322 nM and the TGI (SK-MEL-5 melanoma) was greater than 100000 nM. The GI50 (MCF7 breast) was 53.7 nM, the TGI (MCF7 breast) was greater than 100000 nM and the GI50 (RXF 393 renal) was 151 nM. For the same molecule, the TGI (RXF 393 renal) was 672 nM, the GI50 (HOP-62 NSCLC) was 309 nM and the TGI (HOP-62 NSCLC) was greater than 50000 nM. For the same molecule, the GI50 (K-562 leukemia) was 44.3 nM, the TGI (K-562 leukemia) was greater than 100000 nM and the GI50 (NCI-H23 lung) was 466 nM. For the same molecule, the TGI (NCI-H23 lung) was greater than 100000 nM, the GI50 (KM12 colon) was 83.6 nM and the TGI (KM12 colon) was greater than 100000 nM. The GI50 (OVCAR-8 ovarian) was 376 nM, the TGI (OVCAR-8 ovarian) was greater than 52300 nM and the GI50 (SK-MEL-2 melanoma) was 117 nM. For the same molecule, the GI50 (HOP-92 NSCLC) was 8750 nM, the TGI (HOP-92 NSCLC) was greater than 86100 nM and the GI50 (HL-60(TB) leukemia) was 52 nM. For the same molecule, the TGI (HL-60(TB) leukemia) was 4680 nM, the GI50 (T-47D breast) was 248 nM and the TGI (T-47D breast) was greater than 100000 nM. For the same molecule, the GI50 (A498 renal) was greater than 34000 nM, the TGI (A498 renal) was greater than 90500 nM and the GI50 (UO-31 renal) was 350 nM. It also gave a TGI (UO-31 renal) greater than 66500 nM, a GI50 (SF-268 CNS) of 4610 nM and a TGI (SF-268 CNS) greater than 91900 nM. It also gave a GI50 (NCI/ADR-RES ovarian) of 117 nM, a TGI (NCI/ADR-RES ovarian) greater than 100000 nM and a GI50 (HCT-116 colon) of 93 nM. The TGI (HCT-116 colon) was greater than 100000 nM, the GI50 (EKVX NSCLC) was 347 nM and the TGI (EKVX NSCLC) was greater than 100000 nM. The GI50 (M14 melanoma) was 94.1 nM, the TGI (M14 melanoma) was greater than 100000 nM and the GI50 (RPMI-8226 leukemia) was 157 nM. For the same molecule, the TGI (RPMI-8226 leukemia) was greater than 100000 nM, the GI50 (ACHN renal) was 455 nM and the TGI (ACHN renal) was greater than 100000 nM. It also gave a GI50 (SR leukemia) of 34.4 nM, a TGI (SR leukemia) greater than 100000 nM and a GI50 (HT29 colon) of 77.1 nM. It also gave a GI50 (IGROV1 ovarian) of 409 nM, a TGI (IGROV1 ovarian) greater than 100000 nM and a GI50 (SNB-75 CNS) of 69.3 nM. For the same molecule, the TGI (SNB-75 CNS) was 3440 nM, the GI50 (MDA-MB-435) was 22.1 nM and the TGI (MDA-MB-435) was 55.1 nM. It also gave a GI50 (HCC-2998 colon) of 213 nM and a TGI (HCC-2998 colon) greater than 100000 nM.
